One series addresses T1, Human GLP-1R (Homo sapiens, UniProt P43220).
T1 construct: expressed in transfected cells; host or cells: HEK293 cells
Kind of series: cAMP accumulation assay, GLP-1R. Type of series: cell-based. The settings on record: HEK293 cells; relative to 10 nM GLP-1(7–37) high control; arithmetic mean ± SEM. As to the method:
(§1) These cells were then resuspended in 5 mL of the assay buffer, and their concentration was determined using a Vi-Cell Counter. […] Samples were subsequently added to the assay plate along with ECHO555. […] A volume of 10 µL of the cell suspension was added to the assay plate, with a density of 1000 cells/well for GLP-1R testing and 2000 cells/well for GIPR testing. The assay plate was then incubated in a 23°C incubator for 30 minutes. A starting concentration of 800 nM was used to prepare the cAMP standard curve, followed by a 4-fold 10-point serial dilution. These serially diluted cAMP standards were added to the assay plate at a volume of 10 µL/well. Subsequently, 10 µL of the cAMP detection solution was added to the assay plate, and the plate was incubated at room temperature for 1 hour, shielded from direct light. […] For data analysis, each data point’s cAMP level (nM) was calculated using the established cAMP standard curve. The percentage activity for each data point was determined using the formula: % Activity = (cAMP level of testing sample - average cAMP level of low control) / ([…] cAMP level of high control - average cAMP level of […] control) × 100%. Additionally, the ‘log(agonist) vs. response – variable slope’ model in GraphPad Prism 5.0 was used to fit the dose-response curve of each sample and calculate the EC50 value.
(Cyclic AMP is a second messenger, typically raised through Gs and lowered through Gi signalling.)

Another series concerns the target T2, Human GIPR (Homo sapiens, UniProt P48546).
T2 construct: expressed in transfected cells; host or cells: CHO cells
T2 sequence (P48546 22-466): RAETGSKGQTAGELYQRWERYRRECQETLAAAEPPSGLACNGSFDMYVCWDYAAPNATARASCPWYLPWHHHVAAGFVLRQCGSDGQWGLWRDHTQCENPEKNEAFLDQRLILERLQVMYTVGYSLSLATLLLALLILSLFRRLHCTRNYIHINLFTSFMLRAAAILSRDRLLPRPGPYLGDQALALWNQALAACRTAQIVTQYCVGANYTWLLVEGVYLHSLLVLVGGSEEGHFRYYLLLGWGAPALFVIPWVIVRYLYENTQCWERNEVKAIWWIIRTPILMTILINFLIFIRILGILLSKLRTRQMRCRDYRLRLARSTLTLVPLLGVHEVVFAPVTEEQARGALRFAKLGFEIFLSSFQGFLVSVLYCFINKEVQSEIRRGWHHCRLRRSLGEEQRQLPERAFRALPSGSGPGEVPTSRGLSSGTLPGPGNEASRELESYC
Kind of series: cAMP accumulation assay, GIPR. Type of series: cell-based. As to conditions: CHO. As to the method: as §1

The target of series [1] is T3, Human Serum Albumin (HSA) protein (Homo sapiens, UniProt P02768).
T3 construct: purified Human ALB (25–609)-His was immobilized
T3 sequence (P02768 25-609): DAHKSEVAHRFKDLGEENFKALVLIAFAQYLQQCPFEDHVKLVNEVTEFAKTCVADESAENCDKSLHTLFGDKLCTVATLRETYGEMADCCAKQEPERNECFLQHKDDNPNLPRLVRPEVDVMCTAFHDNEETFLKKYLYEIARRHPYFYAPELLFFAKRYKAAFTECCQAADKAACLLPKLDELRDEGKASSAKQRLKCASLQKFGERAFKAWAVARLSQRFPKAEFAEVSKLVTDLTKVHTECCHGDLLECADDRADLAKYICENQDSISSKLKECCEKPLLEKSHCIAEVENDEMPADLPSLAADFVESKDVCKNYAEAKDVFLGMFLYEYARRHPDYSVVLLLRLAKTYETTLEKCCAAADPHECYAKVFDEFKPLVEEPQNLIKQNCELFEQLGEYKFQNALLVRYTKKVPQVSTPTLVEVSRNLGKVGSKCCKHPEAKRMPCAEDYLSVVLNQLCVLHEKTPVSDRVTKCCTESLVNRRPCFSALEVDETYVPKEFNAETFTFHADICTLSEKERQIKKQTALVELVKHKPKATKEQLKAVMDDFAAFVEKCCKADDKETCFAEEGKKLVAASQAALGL
Kind of series: biochemical. Type of series: binding. The source says: The buffer used was PBST (PBS with 0.02% Tween 20).

Molecules are shown by their SMILES.

The results in this text go back to PMC11271627, “Molecular dynamics-guided optimization of BGM0504 enhances dual-target agonism for combating diabetes and obesity” (Scientific Reports, 2024).

T1 sequence (P43220 24-463): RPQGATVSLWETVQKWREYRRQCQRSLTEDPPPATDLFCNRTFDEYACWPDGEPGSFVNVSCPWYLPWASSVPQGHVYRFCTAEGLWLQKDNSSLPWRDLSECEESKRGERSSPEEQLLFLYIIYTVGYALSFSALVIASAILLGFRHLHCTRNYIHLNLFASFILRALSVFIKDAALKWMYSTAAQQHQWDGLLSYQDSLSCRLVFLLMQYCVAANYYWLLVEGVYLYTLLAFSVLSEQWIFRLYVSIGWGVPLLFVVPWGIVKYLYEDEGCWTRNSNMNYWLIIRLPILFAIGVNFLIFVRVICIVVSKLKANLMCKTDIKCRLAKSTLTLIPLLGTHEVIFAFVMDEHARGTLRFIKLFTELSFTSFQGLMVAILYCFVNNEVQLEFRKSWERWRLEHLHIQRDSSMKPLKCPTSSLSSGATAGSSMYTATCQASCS

By Emax is commonly meant the greatest response seen or fitted, relative to the assay's reference. As to `CC[C@H](C)[C@H](NC(=O)[C@H](CC(C)C)NC(=O)[C@H](Cc1c[nH]c2ccccc12)NC(=O)[C@H](CCC(N)=O)NC(=O)[C@@H](NC(=O)[C@H](Cc1ccccc1)NC(=O)[C@H](C)NC(=O)[C@H](CCCCN)NC(=O)[C@H](CCC(N)=O)NC(=O)[C@H](C)NC(=O)[C@@H](NC(=O)[C@H](CCCCN)NC(=O)[C@H](CC(=O)O)NC(=O)[C@H](CC(C)C)NC(=O)C(C)(C)NC(=O)[C@@H](NC(=O)[C@H](CO)NC(=O)[C@H](Cc1ccc(O)cc1)NC(=O)[C@H](CC(=O)O)NC(=O)[C@H](CO)NC(=O)[C@@H](NC(=O)[C@H](Cc1ccccc1)NC(=O)[C@@H](NC(=O)CNC(=O)[C@H](CCC(=O)O)NC(=O)C(C)(C)NC(=O)[C@@H](N)Cc1ccc(O)cc1)[C@@H](C)O)[C@@H](C)O)[C@@H](C)CC)[C@@H](C)CC)C(C)C)C(=O)N[C@@H](C)C(=O)NCC(=O)NCC(=O)N1CCC[C@H]1C(=O)N[C@@H](CO)C(=O)N[C@@H](CO)C(=O)NCC(=O)N[C@@H](C)C(=O)N1CCC[C@H]1C(=O)N1CCC[C@H]1C(=O)N1CCC[C@H]1C(=O)N[C@@H](CO)C(N)=O` [Non-acylated Tirzepatide, reference compound], the Emax on Human GLP-1R was determined as 96.1 ± 10.8%; on Human GIPR, 92.2 ± 1.7%.
Usually Kd stands for the constant that tells how readily two partners part at equilibrium. A low value points to a tighter complex. Regarding `CC[C@H](C)[C@H](NC(=O)[C@H](CC(C)C)NC(=O)[C@H](Cc1c[nH]c2ccccc12)NC(=O)[C@H](CCC(N)=O)NC(=O)[C@@H](NC(=O)[C@H](Cc1ccccc1)NC(=O)[C@H](C)NC(=O)[C@H](CCCCNC(=O)COCCOCCNC(=O)COCCOCCNC(=O)CC[C@H](NC(=O)CCCCCCCCCCCCCCCCCCC(=O)O)C(=O)O)NC(=O)[C@H](CCC(N)=O)NC(=O)[C@H](C)NC(=O)[C@@H](NC(=O)[C@H](CCCCN)NC(=O)[C@H](CC(=O)O)NC(=O)[C@H](CC(C)C)NC(=O)C(C)(C)NC(=O)[C@@H](NC(=O)[C@H](CO)NC(=O)[C@H](Cc1ccc(O)cc1)NC(=O)[C@H](CC(=O)O)NC(=O)[C@H](CO)NC(=O)[C@@H](NC(=O)[C@H](Cc1ccccc1)NC(=O)[C@@H](NC(=O)CNC(=O)[C@H](CCC(=O)O)NC(=O)C(C)(C)NC(=O)[C@@H](N)Cc1ccc(O)cc1)[C@@H](C)O)[C@@H](C)O)[C@@H](C)CC)[C@@H](C)CC)C(C)C)C(=O)N[C@@H](C)C(=O)NCC(=O)NCC(=O)N1CCC[C@H]1C(=O)N[C@@H](CO)C(=O)N[C@@H](CO)C(=O)NCC(=O)N[C@@H](C)C(=O)N1CCC[C@H]1C(=O)N1CCC[C@H]1C(=O)N1CCC[C@H]1C(=O)N[C@@H](CO)C(N)=O` [Tirzepatide, reference compound], the Emax at Human GLP-1R is 84.1 ± 5%; on Human GIPR, 87.1 ± 7.6%. The same compound came in with a Kd in series [1] of 0.0863 µM.
